Measured values reported in patent EP1157985A1 (G.D. SEARLE & CO., priority 1996, dated 1997).
Where a name gives a salt, the structure may show the parent alone. Read-outs that look alike come from different tables or passages of the source.

Tests used:
[1] = target: T1, Human vitronectin receptor (αvβ3) (Homo sapiens, UniProt P05106+P06756); test: Vitronectin adhesion assay (solid phase receptor assay, competition with biotinylated vitronectin); format: binding
T1 construct: Human vitronectin receptor (αvβ3) was purified from human placenta; from tissue; host or cells: human placenta

[2] = target: T2, Human fibrinogen receptor (αIIbβ3) (Homo sapiens, UniProt P05106+P08514); test: Purified IIb/IIIa receptor assay (solid phase receptor assay, competition with biotinylated vitronectin); format: binding; conditions: purified receptor from outdated platelets; 1 nM biotinylated vitronectin; highest concentration tested 1.0 x 10^-4 M
T2 construct: Human fibrinogen receptor (αIIbβ3) was purified from outdated platelets; from tissue; host or cells: outdated (human) platelets
Procedure, shortened: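 Platelet-derived αIIbβ3 coated at 1.0 µg/mL overnight at 4 °C in TBS with 1 mM Ca, Mg, Mn, pH 7.4, BSA-blocked; compounds competed with 1 nM biotinylated vitronectin (final; top compound 1.0 × 10^-4 M) for 2 h at room temperature. Bound ligand detected via HRP anti-biotin, A450; normalized to maximum binding, four-parameter fit.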

[3] = purified receptor from human placenta; 1 nM biotinylated vitronectin; highest concentration tested 1.0 x 10^-4 M; read-out: AvB3 IC50
[4] = read-out: AvB3 IC50; purified receptor from human placenta; 1 nM biotinylated vitronectin; highest concentration tested 1.0 x 10^-4 M

Molecule `CN(C)c1cc(NC(=O)c2cccc(NC(=N)N)c2)ccc1CCC(=O)O` [Example 117, 4-[[[3-[(aminoiminomethyl)amino]phenyl]carbonyl]-amino]-2-(dimethylamino)benzenepropanoic acid, bis(trifluoroacetate) salt] has an IC50 [1, 3] of 0.129 µM and an IC50 [2] of 0.452 µM.
`COc1cc(NC(=O)c2cccc(NC3=NCCCN3)c2)ccc1OCC(=O)O` [Example 119, [2-methoxy-4-[[[3-[(1,4,5,6-tetrahydropyrimidin-2-yl]-amino]phenyl]carbonyl]amino]phenoxy]acetic acid, trifluoroacetate salt] gave an IC50 [1, 3] of 0.0004 µM and an IC50 [2] of 0.772 µM.
With `N=C(N)Nc1cccc(C(=O)Nc2ccc(CC(C(=O)O)C(=O)O)cc2)c1` [Example 120, [[4-[[[3-[(aminoiminomethyl)amino]phenyl]carbonyl]-amino]phenyl]methyl]-1,3-propanoic acid, trifluoroacetic salt] the IC50 [1, 3] was 0.014 µM and the IC50 [2] was 0.384 µM.
For `Cc1cc(C)c(S(=O)(=O)NC(Cc2ccc(NC(=O)c3cccc(NC(=N)N)c3)cc2)C(=O)O)c(C)c1` (stereo not shown) [Example 121, trifluoroacetate salt], the IC50 [1, 4] was 0.001 µM and the IC50 [2] was 0.002 µM.
`N=C(N)Nc1cccc(C(=O)Nc2ccc(CC(NS(=O)(=O)c3cc(Cl)cc(Cl)c3)C(=O)O)cc2)c1` (stereo not shown) [Example 122, [4-[[[3-[(aminoiminomethyl)amino]phenyl]carbonyl]-amino]-N-[(3,5-dichlorophenyl)sulfonyl]phenyl-alanine, trifluoroacetate salt] gave an IC50 [1, 3] of 0.007 µM and an IC50 [2] of 0.05 µM.
`N=C(N)Nc1cccc(C(=O)Nc2ccc(CC(NC(=O)N3CCOCC3)C(=O)O)cc2)c1` (stereo not shown) [Example 125, 4-[[[3-[(aminoiminomethyl)amino]phenyl]carbonyl]-amino]-N-[(4-morpholinyl)carbonyl]phenylalanine, bis(trifluoroacetate) salt, monohydrate] gave an IC50 [1, 3] of 0.007 µM and an IC50 [2] of 0.26 µM.
`N=C(N)Nc1cccc(C(=O)Nc2ccc(CC(NC(=O)N3CCCCC3)C(=O)O)cc2)c1` (stereo not shown) [Example 126, 4-[[[3-[(aminoiminomethyl)amino]phenyl]carbonyl]-amino]-N-[(1-pipridinyl)carbonyl]phenyl-alanine, trifluoroacetate salt] was tested, and the IC50 [1, 3] was 0.002 µM and the IC50 [2] was 0.036 µM.
With `CC(C)OC(=O)NC(Cc1ccc(NC(=O)c2cccc(NC(=N)N)c2)c(Cl)c1)C(=O)O` (stereo not shown) [Example 127, trifluoroacetate salt] the IC50 [1, 4] was 0.0006 µM and the IC50 [2] was 0.022 µM.
